# Results taken from patent US7998978B2 (Pfizer Inc., priority 2006, dated 2011).
# Target: T1, JNK1α1 (Homo sapiens, UniProt P45983)
# T1 construct: catalytic domain containing amino acids 1-364 and N-terminal hexahistidine tag; hexahistidine (His6) (N); made in house; host or cells: E. coli BL21 (DE3)
# Assay: Coupled spectrophotometric (PK/LDH) JNK1α1 assay: % inhibition and Ki determination
# Assay type: biochemical
# Conditions: @1 uM; read-out: % Inhibition JNK-1
# How it was run: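 Initial rates were taken from the absorbance decrease at 340 nm at 30° C. Ki was fitted with a tight-binding model over 11 concentrations (top 100 μM); single-point inhibition was tested at 1 or 10 μM.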
# T1 sequence (P45983 1-364): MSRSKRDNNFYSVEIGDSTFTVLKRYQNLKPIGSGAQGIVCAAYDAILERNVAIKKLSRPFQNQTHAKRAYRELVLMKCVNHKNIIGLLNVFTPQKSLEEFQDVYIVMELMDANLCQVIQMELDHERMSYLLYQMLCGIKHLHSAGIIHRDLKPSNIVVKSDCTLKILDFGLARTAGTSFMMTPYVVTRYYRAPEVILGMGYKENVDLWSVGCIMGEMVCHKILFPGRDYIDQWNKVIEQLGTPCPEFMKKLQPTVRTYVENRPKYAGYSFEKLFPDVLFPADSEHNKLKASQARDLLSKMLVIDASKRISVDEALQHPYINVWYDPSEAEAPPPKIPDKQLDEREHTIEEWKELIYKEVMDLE
row,SMILES,inhibition at 1 µM [%]
1,"O[C@H]1CC[C@H](Nc2ncc3cccc(OCCN4CCOCC4)c3n2)CC1 [Example 250, trans-4-{[8-(2-morpholin-4-ylethoxy)quinazolin-2-yl]amino}cyclohexanol]",24
2,"CN(C)C(C)(C)COc1cccc2cnc(N[C@H]3CC[C@H](O)CC3)nc12 [Example 251, trans-4-({8-[2-(dimethylamino)-2-methylpropoxy]quinazolin-2-yl}amino)cyclohexanol]",19
3,"CN1CCC(Oc2cccc3cnc(N[C@H]4CC[C@H](O)CC4)nc23)CC1 [Example 254, trans-4-({8-[(1-methylpiperidin-4-yl)oxy]quinazolin-2-yl}amino)cyclohexanol]",17
4,"O[C@H]1CC[C@H](Nc2ncc3cccc(OCCN4CCCCC4)c3n2)CC1 [Example 255, trans-4-{[8-(2-piperidin-1-ylethoxy)quinazolin-2-yl]amino}cyclohexanol]",12
5,"COCCOc1cccc2cnc(N[C@H]3CC[C@H](O)CC3)nc12 [Example 256, trans-4-{[8-(2-methoxyethoxy)quinazolin-2-yl]amino}cyclohexanol]",29
6,"CC(C)(C)OCCOc1cccc2cnc(N[C@H]3CC[C@H](O)CC3)nc12 [Example 258, trans-4-{[8-(2-tert-butoxyethoxy)quinazolin-2-yl]amino}cyclohexanol]",30
7,"O=C1NCCN1CCOc1cccc2cnc(N[C@H]3CC[C@H](O)CC3)nc12 [Example 260, 1-[2-({2-[(trans-4-hydroxycyclohexyl)amino]quinazolin-8-yl}oxy)ethyl]imidazolidin-2-one]",34

# Same assay, conditions: @10 uM; read-out: % Inhibition JNK-1
row,SMILES,inhibition at 10 µM [%]
1,"COc1ccc(CNc2cc3cc(-c4cn[nH]c4)ccc3cn2)cn1 [Example 231, N-[(6-methoxypyridin-3-yl)methyl]-6-(1H-pyrazol-4-yl)isoquinolin-3-amine]",43
2,"COc1ccccc1-c1ncc(CNc2cc3cc(-c4cn[nH]c4)ccc3cn2)cn1 [Example 232, N-{[2-(2-methoxyphenyl)pyrimidin-5-yl]methyl}-6-(1H-pyrazol-4-yl)isoquinolin-3-amine]",46
3,"c1ccc(Cn2cccn2)c(CNc2cc3cc(-c4cn[nH]c4)ccc3cn2)c1 [Example 233, 6-(1H-pyrazol-4-yl)-N-[2-(1H-pyrazol-1-ylmethyl)benzyl]isoquinolin-3-amine]",46
4,"CC(C)Oc1ccc(CNc2cc3cc(-c4cn[nH]c4)ccc3cn2)cc1CO [Example 234, [2-isopropoxy-5-({[6-(1H-pyrazol-4-yl)isoquinolin-3-yl]amino}methyl)phenyl]methanol]",19
5,"c1ncc(-c2ccc(CNc3cc4cc(-c5cn[nH]c5)ccc4cn3)cc2)cn1 [Example 235, 6-(1H-pyrazol-4-yl)-N-(4-pyrimidin-5-ylbenzyl)isoquinolin-3-amine]",15
6,"COc1ccc(F)c(CNc2cc3cc(-c4cn[nH]c4)ccc3cn2)c1 [Example 236, N-(2-fluoro-5-methoxybenzyl)-6-(1H-pyrazol-4-yl)isoquinolin-3-amine]",49
7,"CS(=O)(=O)Nc1ccc(CNc2cc3cc(-c4cn[nH]c4)ccc3cn2)cc1 [Example 237, N-[4-({[6-(1H-pyrazol-4-yl)isoquinolin-3-yl]amino}methyl)phenyl]methanesulfon-amide]",41
8,"N#Cc1cccc(CNc2cc3cc(-c4cn[nH]c4)ccc3cn2)c1 [Example 238, 3-({[6-(1H-pyrazol-4-yl)isoquinolin-3-yl]amino}methyl)benzonitrile]",46
9,"CN1CCCCC1COc1cccc2cnc(N[C@H]3CC[C@H](O)CC3)nc12 (stereo partly drawn) [Example 252, trans-4-({8-[(1-methylpiperidin-2-yl)methoxy]quinazolin-2-yl}amino)cyclohexanol]",59
10,"CN1CCCC(COc2cccc3cnc(N[C@H]4CC[C@H](O)CC4)nc23)C1 (stereo partly drawn) [Example 253, trans-4-({8-[(1-methylpiperidin-3-yl)methoxy]quinazolin-2-yl}amino)cyclohexanol]",38
11,"CN1CCC[C@H]1COc1cccc2cnc(N[C@H]3CC[C@H](O)CC3)nc12 [Example 257, trans-4-[(8-{[(2S)-1-methylpyrrolidin-2-yl]methoxy}quinazolin-2-yl)amino]cyclohexanol]",62
12,"CCN1CCC(Oc2cccc3cnc(N[C@H]4CC[C@H](O)CC4)nc23)C1 (stereo partly drawn) [Example 259, trans-4-({8-[(1-ethylpyrrolidin-3-yl)oxy]quinazolin-2-yl}amino)cyclohexanol]",65
13,"CCN(CC)CCOc1cccc2cnc(N[C@H]3CC[C@H](O)CC3)nc12 [Example 261, trans-4-({8-[2-(diethylamino)ethoxy]quinazolin-2-yl}amino)cyclohexanol]",42

# Same assay, conditions: JNK-1
row,SMILES,Ki [nM]
1,"O[C@H]1CC[C@H](Nc2ncc3cccc(OC4CCC(F)(F)CC4)c3n2)CC1 [Example 239, trans-4-({8-[(4,4-difluorocyclohexyl)oxy]quinazolin-2-yl}amino)cyclohexanol]",67
2,"O[C@H]1CC[C@H](Nc2ncc3cccc(O[C@H]4CCCN(Cc5ccccn5)C4)c3n2)CC1 [Example 240, trans-4-[(8-{[1-(pyridin-2-ylmethyl)piperidin-3-yl]oxy}quinazolin-2-yl)amino]cyclohexanol]",79
3,"COC(C)(C)CCOc1cccc2cnc(N[C@H]3CC[C@H](O)CC3)nc12 [Example 241, trans-4-{[8-(3-methoxy-3-methylbutoxy)quinazolin-2-yl]amino}cyclohexanol]",98
4,"O[C@H]1CC[C@H](Nc2ncc3cccc(OC4CCC4)c3n2)CC1 [Example 242, trans-4-{[8-(cyclobutyloxy)quinazolin-2-yl]amino}cyclohexanol]",112
5,"O[C@H]1CC[C@H](Nc2ncc3cccc(OCC4CCCCO4)c3n2)CC1 (stereo partly drawn) [Example 243, trans-4-{[8-(tetrahydro-2H-pyran-2-ylmethoxy)quinazolin-2-yl]amino}cyclohexanol]",233
6,"O[C@H]1CC[C@H](Nc2ncc3cccc(OCC(F)(F)F)c3n2)CC1 [Example 244, trans-4-{[8-(2,2,2-trifluoroethoxy)quinazolin-2-yl]amino}cyclohexanol]",234
7,"O[C@H]1CC[C@H](Nc2ncc3cccc(OCCc4cn[nH]c4)c3n2)CC1 [Example 245, trans-4-({8-[2-(1H-pyrazol-4-yl)ethoxy]quinazolin-2-yl}amino)cyclohexanol]",239
8,"CCC1(COc2cccc3cnc(N[C@H]4CC[C@H](O)CC4)nc23)COC1 [Example 246, trans-4-({8-[(3-ethyloxetan-3-yl)methoxy]quinazolin-2-yl}amino)cyclohexanol]",257
9,"O[C@H]1CC[C@H](Nc2ncc3cccc(OC4CCN(c5ccncn5)CC4)c3n2)CC1 [Example 247, trans-4-({8-[(1-pyrimidin-4-ylpiperidin-4-yl)oxy]quinazolin-2-yl}amino)cyclohexanol]",274
10,"O[C@H]1CC[C@H](Nc2ncc3cccc(OCc4ccccn4)c3n2)CC1 [Example 248, trans-4-{[8-(pyridin-2-ylmethoxy)quinazolin-2-yl]amino}cyclohexanol]",303
11,"O[C@H]1CC[C@H](Nc2ncc3cccc(OCC4CCOC4)c3n2)CC1 (stereo partly drawn) [Example 249, trans-4-{[8-(tetrahydrofuran-3-ylmethoxy)quinazolin-2-yl]amino}cyclohexanol]",323
